Assay results published in patent publication US4201781A, “Substituted 7[s-oxopyrido[2,3-d]pyrimidine carboxamido acetamido]cephalosporins” (Dainippon Pharmaceutical Co., Ltd., priority 1977, dated 1980).
Read-outs that look alike come from different tables or passages of the source.

Key:
[1] = test system: Corynebacterium pyrogenes C-21; experiment: In vitro antibacterial activity (MIC); assay type: cell-based; details: Corynebacterium, C21, read-out: minimum inhibitory concentration (MIC)
Text: (§1) The numerals in the table show minimum inhibitory concentrations (MIC)

[2] = test system: Enterobacter cloacae P-2540; experiment: In vitro antibacterial activity (MIC); assay type: cell-based; details: Enterobacter cloacae, P2540, read-out: minimum inhibitory concentration (MIC)
Text: as §1

[3] = test system: Escherichia coli NIHJ JC-2; experiment: In vitro antibacterial activity (MIC); assay type: cell-based; details: Escherichia coli, NIHJJC2, read-out: minimum inhibitory concentration (MIC)
Text: as §1

Escherichia coli P-5101 [4] = experiment: In vitro antibacterial activity (MIC); assay type: cell-based; details: Escherichia coli, P5101, read-out: minimum inhibitory concentration (MIC)
Text: as §1

[5] = test system: Klebsiella pneumoniae No. 13; experiment: In vitro antibacterial activity (MIC); assay type: cell-based; details: Klebsiella pneumoniae, NO.13, read-out: minimum inhibitory concentration (MIC)
Text: as §1

Proteus mirabilis P-2381 = experiment: In vitro antibacterial activity (MIC); assay type: cell-based; details: Proteus mirabilis, P2381, read-out: minimum inhibitory concentration (MIC)
Text: as §1

Proteus morganii Kono = experiment: In vitro antibacterial activity (MIC); assay type: cell-based; details: Morganella morganii, read-out: minimum inhibitory concentration (MIC)
Text: as §1

[6] = test system: Pseudomonas aeruginosa No. 12; experiment: In vitro antibacterial activity (MIC); assay type: cell-based; details: Pseudomonas aeruginosa, NO.12, read-out: minimum inhibitory concentration (MIC)
Text: as §1

[7] = test system: Pseudomonas aeruginosa Tsuchijima; experiment: In vitro antibacterial activity (MIC); assay type: cell-based; details: Pseudomonas aeruginosa, read-out: minimum inhibitory concentration (MIC)
Text: as §1

[8] = test system: Salmonella enteritidis No. 1891; experiment: In vitro antibacterial activity (MIC); assay type: cell-based; details: Salmonella enterica, ENTERITIDIS, read-out: minimum inhibitory concentration (MIC)
Text: as §1

[9] = test system: Salmonella typhimurium S-9; experiment: In vitro antibacterial activity (MIC); assay type: cell-based; details: Salmonella enterica, TYPHIMURIUM, read-out: minimum inhibitory concentration (MIC)
Text: as §1

[10] = test system: Serratia marcescens IFO 3736; experiment: In vitro antibacterial activity (MIC); assay type: cell-based; details: Serratia marcescens, IFO3736, read-out: minimum inhibitory concentration (MIC)
Text: as §1

[11] = test system: Staphylococcus aureus 209P JC-1; experiment: In vitro antibacterial activity (MIC); assay type: cell-based; details: Staphylococcus aureus, 209P, read-out: minimum inhibitory concentration (MIC)
Text: as §1

[12] = test system: Staphylococcus aureus No. 50774; experiment: In vitro antibacterial activity (MIC); assay type: cell-based; details: Staphylococcus aureus, NO.50774, read-out: minimum inhibitory concentration (MIC)
Text: as §1

[13] = test system: Streptococcus pyrogenes 65A; experiment: In vitro antibacterial activity (MIC); assay type: cell-based; details: Streptococcus, 65A, read-out: minimum inhibitory concentration (MIC)
Text: as §1

Escherichia coli P-140a = experiment: In vitro antibacterial activity (MIC); assay type: cell-based; details: Escherichia coli, read-out: minimum inhibitory concentration (MIC)
Text: as §1
(§2) *Clinically isolated Cephalexinresistant strain.

Shigella flexneri 2a = experiment: In vitro antibacterial activity (MIC); assay type: cell-based; details: Shigella flexneri, 2A, read-out: minimum inhibitory concentration (MIC)
Text: as §1, §2

[14] = test system: Shigella flexneri 4a P-330; experiment: In vitro antibacterial activity (MIC); assay type: cell-based; details: Shigella flexneri, 4AP330, read-out: minimum inhibitory concentration (MIC)
Text: as §1, §2

[15] = test system: Staphylococcus aureus No. 50774; experiment: In vivo efficacy against systemic infection in mice; parameters: species or system male mice (ddY); details: NO.50774, sc, 336 h, read-out: ED50 (median effective dose)
Protocol: (§3) Compounds 1,2, A and B were each dissolved in deionized water to prepare injectable solutions having various concentrations.
(§4) Each of the injectable solutions was administered to mice infected with each of the bacteria described below under the conditions described below, and the median effective doses (ED50) obtained are shown in Table II. […]
(§5) male mice (ddY) weighing about 20 g
(1) Staphylococcus aureus No. 50774; Intravenous infection with 50 to 100 LD50 (about 5×10^8 cells/mouse) of a bacterial suspension in saline. twice, about 5 minutes and 6 hours after infection. […]
(§6) Note; The numerals in the table show ED50 (mg/kg). ED50 values
(§7) were calculated in accordance with the BehrensKaerber method (Arch. Exp.

Escherichia coli P-5101 [16] = experiment: as above; parameters: species or system male mice (ddY); details: P5101, sc, 168 h, read-out: ED50 (median effective dose)
Protocol: as §3
Each of the injectable solutions was administered to mice infected with each of the bacteria described below under the conditions described below, and the median effective doses (ED50) obtained are shown in Table II.
as §5
(2) Escherichia coli P-5101; Intraperitoneal infection with 50 to 100 LD50 (about 9×10^6 cells/mouse) of a bacterial suspension in trypto-soy broth with 4% mucin.
twice, about 5 minutes and 6 hours after infection.
as §6, §7

[17] = test system: Pseudomonas aeruginosa No. 12; experiment: as above; parameters: species or system male mice (ddY); details: 168 h, read-out: ED50 (median effective dose)
Protocol: as §3, §4, §5
(3) Pseudomonas aeruginosa No. 12; Intraperitoneal infection with 50 to 100 LD50 (about 5×10^3 cells/mouse) of a bacterial suspension in trypto-soy broth with 4% mucin. twice, about 5 minutes and 6 hours after infection. […]
as §6, §7

Acute toxicity in mice = details: mouse, in vivo, ip; read-out: LD50 (median lethal dose)
Protocol: Injectable solutions containing compounds 1, 2 and compound A in various concentrations were administered to male mice (ddY) (4 to 8 in each group) in a dose of 0.1 ml per 10 g of body weight. The number of dead mice was counted after a lapse of 7 days, and the value of median lethal dose (LD50, mg/kg) was calculated.
Note: The LD50 values were calculated in accordance with the […]

Solubility in water = assay type: physicochemical
Protocol: |Solubility in deionized water at 25° C.

[18] = test system: Gram-negative and Gram-positive bacteria; experiment: Antibacterial activity (general statement)

Work on `Cn1nnnc1SCC1=C(C(=O)[O-])N2C(=O)C(NC(=O)[C@H](NC(=O)c3c[nH]c4nc(N5CCNCC5)ncc4c3=O)c3ccc(O)cc3)[C@H]2SC1.[Na+]` (some centres unmarked) yielded an MIC [1] of 6.25 µg/mL, an MIC [2] of 3.13 µg/mL and an MIC [3] of 1.56 µg/mL. The MIC (Escherichia coli P-5101 [4]) was 0.78 µg/mL, the MIC [5] was 0.78 µg/mL and the MIC (Proteus mirabilis P-2381) was 12.5 µg/mL. The MIC (Proteus morganii Kono) was 25 µg/mL, the MIC [6] was 6.25 µg/mL and the MIC [7] was 3.13 µg/mL. For the same molecule, the MIC [8] was 0.78 µg/mL, the MIC [9] was 0.78 µg/mL and the MIC [10] was 6.25 µg/mL. It also gave an MIC [11] of 3.13 µg/mL, an MIC [12] of 6.25 µg/mL and an MIC [13] of 0.2 µg/mL. It also gave an MIC (Escherichia coli P-140a) of 1.56 µg/mL, an MIC (Shigella flexneri 2a) of 0.78 µg/mL and an MIC [14] of 12.5 µg/mL. The ED50 [15] was about 7.8 mg/kg, the ED50 (Escherichia coli P-5101 [16]) was about 0.4 mg/kg and the ED50 ([17]; NO.12, po) was over 100 mg/kg. For the same molecule, the ED50 ([17]; NO.12, sc) was 4.8 mg/kg, the LD50 at 168 h (Acute toxicity in mice) was about 1500 mg/kg and the solubility (Solubility in water; deionized water at 25° C.) was about 500 µg/mL. For the same molecule, the “Solubility in water (in words)” value (Solubility in water; water / deionized water / aqueous medium) was “extremely low solubility in water” and the “antibacterial activity (in words)” value [18] was “superior antibacterial activity as the compound of the present invention”.
